≈ marks a conversion by molar mass, not a printed value. Calls of active or inactive are those of the source. The rule behind the calls is not given here.
Columns and labels:
Candida albicans [1] = experiment: Antifungal activity against FCZ-resistant Candida albicans CaR by CLSI based broth microdilution method; format: functional
Candida albicans [2] = experiment: Antifungal activity against FCZ-resistant Candida albicans 17# by CLSI based broth microdilution method; format: functional
Candida albicans [3] = experiment: Antifungal activity against FCZ-resistant Candida albicans 632 by CLSI based broth microdilution method; format: functional
Candida albicans [4] = experiment: Antifungal activity against FCZ-resistant Candida albicans 901 by CLSI based broth microdilution method; format: functional
Candida albicans [5] = experiment: Fungicidal activity against Candida albicans sc5314; format: functional
Candida albicans [6] = experiment: Fungicidal activity against FCZ-resistant Candida albicans CaR; format: functional
Candida albicans [7] = experiment: Fungicidal activity against FCZ-resistant Candida albicans 17#; format: functional
Candida albicans [8] = experiment: Fungicidal activity against FCZ-resistant Candida albicans 632; format: functional
Candida albicans [9] = experiment: Fungicidal activity against FCZ-resistant Candida albicans 901; format: functional
Candida albicans [10] = experiment: Fungicidal activity against FCZ-resistant Candida albicans 904; format: functional
[11] = target: T1, Lanosterol 14-alpha demethylase (Candida albicans (strain SC5314 / ATCC MYA-2876) (Yeast), UniProt P10613); experiment: Inhibition of CYP51 of Candida albicans ATCC SC5314 assessed as decrease in ergosterol level by measuring residual activity at 2 ug/ml incubated for 16 hrs by GC-MS analysis (reference value: 98.3 %); details: at 2 µg/mL
[12] = target: T1, Lanosterol 14-alpha demethylase; experiment: Inhibition of CYP51 of Candida albicans ATCC SC5314 assessed as decrease in ergosterol level by measuring residual activity at 4 ug/ml incubated for 16 hrs by GC-MS analysis (reference value: 98.3 %); details: at 4 µg/mL
[13] = target: T1, Lanosterol 14-alpha demethylase; experiment: Inhibition of CYP51 of Candida albicans ATCC SC5314 assessed as decrease in ergosterol level by measuring residual activity at 8 ug/ml incubated for 16 hrs by GC-MS analysis (reference value: 98.3 %); details: at 8 µg/mL
[14] = target: T1, Lanosterol 14-alpha demethylase; experiment: Inhibition of CYP51 of Candida albicans ATCC SC5314 assessed as increase in obtusifoliol level at 1 ug/ml incubated for 16 hrs by GC-MS analysis (reference value: 0 %); parameters: scale not given: the % may be the effect or the level left; details: at 1 µg/mL
[15] = target: T1, Lanosterol 14-alpha demethylase; experiment: Inhibition of CYP51 of Candida albicans ATCC SC5314 assessed as increase in obtusifoliol level at 4 ug/ml incubated for 16 hrs by GC-MS analysis (reference value: 0 %); parameters: scale not given: the % may be the effect or the level left; details: at 4 µg/mL
[16] = target: T1, Lanosterol 14-alpha demethylase; experiment: Inhibition of CYP51 of Candida albicans ATCC SC5314 assessed as increase in lanosterol level at 1 ug/ml incubated for 16 hrs by GC-MS analysis (reference value: 1.7 %); parameters: scale not given: the % may be the effect or the level left; details: at 1 µg/mL
[17] = target: T1, Lanosterol 14-alpha demethylase; experiment: Inhibition of CYP51 of Candida albicans ATCC SC5314 assessed as increase in lanosterol level at 2 ug/ml incubated for 16 hrs by GC-MS analysis (reference value: 1.7 %); parameters: scale not given: the % may be the effect or the level left; details: at 2 µg/mL
[18] = target: T1, Lanosterol 14-alpha demethylase; experiment: Inhibition of CYP51 of Candida albicans ATCC SC5314 assessed as increase in lanosterol level at 4 ug/ml incubated for 16 hrs by GC-MS analysis (reference value: 1.7 %); parameters: scale not given: the % may be the effect or the level left; details: at 4 µg/mL
[19] = target: T1, Lanosterol 14-alpha demethylase; experiment: Inhibition of CYP51 of Candida albicans ATCC SC5314 assessed as increase in eburicol level at 1 ug/ml incubated for 16 hrs by GC-MS analysis (reference value: 0 %); parameters: scale not given: the % may be the effect or the level left; details: at 1 µg/mL
[20] = target: T1, Lanosterol 14-alpha demethylase; experiment: Inhibition of CYP51 of Candida albicans ATCC SC5314 assessed as increase in eburicol level at 2 ug/ml incubated for 16 hrs by GC-MS analysis (reference value: 0 %); parameters: scale not given: the % may be the effect or the level left; details: at 2 µg/mL
[21] = target: T1, Lanosterol 14-alpha demethylase; experiment: Inhibition of CYP51 of Candida albicans ATCC SC5314 assessed as increase in eburicol level at 4 ug/ml incubated for 16 hrs by GC-MS analysis (reference value: 0 %); parameters: scale not given: the % may be the effect or the level left; details: at 4 µg/mL
[22] = target: T1, Lanosterol 14-alpha demethylase; experiment: Inhibition of CYP51 of Candida albicans ATCC SC5314 assessed as increase in eburicol level at 8 ug/ml incubated for 16 hrs by GC-MS analysis (reference value: 0 %); parameters: scale not given: the % may be the effect or the level left; details: at 8 µg/mL
Candida albicans [23] = experiment: Antibiofilm activity against Candida albicans SC5314 assessed as sessile minimum inhibitory concentration measured after 1.5 hrs by XTT assay; format: functional
Candida albicans [24] = experiment: Antibiofilm activity against Candida albicans SC5314 assessed as sessile minimum inhibitory concentration measured after 3 hrs by XTT assay; format: functional
Candida albicans [25] = experiment: Antibiofilm activity against Candida albicans SC5314 assessed as sessile minimum inhibitory concentration measured after 6 hrs by XTT assay; format: functional
Candida albicans [26] = experiment: Antibiofilm activity against Candida albicans SC5314 assessed as sessile minimum inhibitory concentration measured after 24 hrs by XTT assay; format: functional
Candida albicans [27] = experiment: Antibiofilm activity against Candida albicans CPCC400616 assessed as sessile minimum inhibitory concentration measured after 1.5 hrs by XTT assay; format: functional
Candida albicans [28] = experiment: Antibiofilm activity against Candida albicans CPCC400616 assessed as sessile minimum inhibitory concentration measured after 6 hrs by XTT assay; format: functional
Candida albicans [29] = experiment: Antibiofilm activity against Candida albicans CPCC400616 assessed as sessile minimum inhibitory concentration measured after 24 hrs by XTT assay; format: functional
[30] = Cytotoxicity against human HL-60 cells by MTT assay; format: toxicity, cell-based
[31] = Cytotoxicity against human MDA-MB-231 cells by MTT assay; format: toxicity, cell-based
[32] = Cytotoxicity against human PC-3 cells by MTT assay; format: toxicity, cell-based
[33] = Metabolic stability in mouse liver microsome assessed as clearance; format: ADME; details: liver microsomes, read-out: CLH
Candida albicans [34] = experiment: Antifungal activity against Candida albicans ATCC SC5314 infected in mouse model assessed as reduction in kidney fungal burden at 6 to 12 mg/kg, ip measured after 5 consecutive days by colony forming unit assay; format: functional, organism-based; details: dose 6-12 mg/kg, time 5.0 day
[35] = Acute toxicity in water diet-fed Kunming mouse assessed as change in body weight at 500 mg/kg, IG measured for 7 days; format: organism-based; details: in vivo, po, 168 h, time 7 day
[36] = Subacute toxicity in water diet-fed Kunming mouse assessed as animal death at 100 to 200 mg/kg, IG measured after 7 to 14 days of continuous administration; format: organism-based; details: in vivo, po, dose lower 100 mg/kg, time lower 7 day, dose upper 200 mg/kg, time upper 14 day
[37] = Subacute toxicity in water diet-fed Kunming mouse assessed as lesions in kidney at 100 to 200 mg/kg, IG measured after 8 to 15 days; format: organism-based; details: in vivo, po, dose lower 100 mg/kg, time lower 8 day, dose upper 200 mg/kg, time upper 15 day
[38] = Subacute toxicity in water diet-fed Kunming mouse assessed as liver edema at 100 to 200 mg/kg, IG measured after 7 to 14 days by microscopic analysis; format: organism-based; details: in vivo, po, dose lower 100 mg/kg, time lower 7 day, dose upper 200 mg/kg, time upper 14 day
[39] = Subacute toxicity in water diet-fed Kunming mouse assessed as focal necrosis in liver at 100 to 200 mg/kg, IG measured after 7 to 14 days by microscopic analysis; format: organism-based; details: in vivo, po, dose lower 100 mg/kg, time lower 7 day, dose upper 200 mg/kg, time upper 14 day

T1 sequence (P10613 whole entry): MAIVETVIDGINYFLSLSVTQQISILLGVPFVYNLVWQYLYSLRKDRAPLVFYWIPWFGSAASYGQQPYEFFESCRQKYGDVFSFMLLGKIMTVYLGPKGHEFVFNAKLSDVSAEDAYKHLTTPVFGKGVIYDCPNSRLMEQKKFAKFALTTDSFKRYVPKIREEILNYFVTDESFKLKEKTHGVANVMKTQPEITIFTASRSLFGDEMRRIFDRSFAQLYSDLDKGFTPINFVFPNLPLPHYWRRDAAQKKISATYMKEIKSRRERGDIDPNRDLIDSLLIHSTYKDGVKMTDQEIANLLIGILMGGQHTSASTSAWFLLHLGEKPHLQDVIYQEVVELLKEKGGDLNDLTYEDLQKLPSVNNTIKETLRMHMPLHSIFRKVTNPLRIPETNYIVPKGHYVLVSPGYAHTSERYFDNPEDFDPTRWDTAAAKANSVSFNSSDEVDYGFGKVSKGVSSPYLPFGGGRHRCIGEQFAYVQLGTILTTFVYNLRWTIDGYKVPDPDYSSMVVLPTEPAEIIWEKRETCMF

## Clc1ccc(C(Cn2ccnc2)[Se][Se]C(Cn2ccnc2)c2ccc(Cl)cc2Cl)c(Cl)c1 (stereo unspecified)
Candida albicans [1]
  MIC: 2 µg/mL (≈ 3.13 µM)
Candida albicans [2]
  MIC: 8 µg/mL (≈ 12.5 µM)
Candida albicans [3]
  MIC: 4 µg/mL (≈ 6.27 µM)
Candida albicans [4]
  MIC: 2 µg/mL (≈ 3.13 µM)
Candida albicans [5]
  MFC: 8 µg/mL (≈ 12.5 µM)
Candida albicans [6]
  MFC: 16 µg/mL (≈ 25.1 µM)
Candida albicans [7]
  MFC: > 64 µg/mL
Candida albicans [8]
  MFC: 16 µg/mL (≈ 25.1 µM)
Candida albicans [9]
  MFC: 2 µg/mL (≈ 3.13 µM)
Candida albicans [10]
  MFC: 4 µg/mL (≈ 6.27 µM)
[11]
  Activity: 2.4%
[12]
  Activity: 2.7%
[13]
  Activity: 2.2%
[14]
  Activity: 6.4%
[15]
  Activity: 13.5%
[16]
  Activity: 8.4%
[17]
  Activity: 22.6%
[18]
  Activity: 14.2%
[19]
  Activity: 60.8%
[20]
  Activity: 62.8%
[21]
  Activity: 69.5%
[22]
  Activity: 61.3%
Candida albicans [23]
  MIC50: 0.5 µg/mL (≈ 0.784 µM)
  MIC80: 4 µg/mL (≈ 6.27 µM)
Candida albicans [24]
  MIC50: 0.5 µg/mL (≈ 0.784 µM)
  MIC80: 4 µg/mL (≈ 6.27 µM)
Candida albicans [25]
  MIC50: 0.5 µg/mL (≈ 0.784 µM)
  MIC80: 4 µg/mL (≈ 6.27 µM)
Candida albicans [26]
  MIC50: 0.5 µg/mL (≈ 0.784 µM)
  MIC80: 32 µg/mL (≈ 50.1 µM)
Candida albicans [27]
  MIC50: 0.5 µg/mL (≈ 0.784 µM)
  MIC80: 2 µg/mL (≈ 3.13 µM)
Candida albicans [28]
  MIC50: 1 µg/mL (≈ 1.57 µM)
  MIC80: 4 µg/mL (≈ 6.27 µM)
Candida albicans [29]
  MIC50: 4 µg/mL (≈ 6.27 µM)
  MIC80: 4 µg/mL (≈ 6.27 µM)
[30]
  IC50: 32.5 µM
[31]
  IC50: 6.25 µM
[32]
  IC50: 1.43 µM
[33]
  CLint scaled: 134 mL/min/kg
Candida albicans [34]
  Activity: Active
[35]
  Activity: Non-Toxic
[36]
  Activity: Non-Toxic
[37]
  Activity: Non-Toxic
[38]
  Activity: Toxic
[39]
  Activity: Toxic

Reference: ChEMBL document CHEMBL5352410, “Discovery of novel selenium-containing azole derivatives as antifungal agents by exploiting the hydrophobic cleft of CYP51” (Eur J Med Chem, 2022)
